Reference: the NIST ThermoML archive (doi:10.1016/j.jct.2011.08.016)

Details: Liquid, Vibrating tube method

CCCCCCCCCC [decane]
mass density [kg/m3]
Details | 313.07 K | 323 K | 332.87 K | 342.78 K | 352.8 K | 362.73 K
1000 kPa | 715.64 | 707.96 | 700.33 | 692.65 | – | –
2000 kPa | 716.68 | 708.93 | 701.26 | 693.68 | 686.08 | 678.44
3000 kPa | 717.38 | 709.81 | 702.21 | 694.72 | 687.17 | 679.58
4000 kPa | 718.16 | 710.88 | 703.17 | 695.7 | 688.23 | 680.71
5000 kPa | 719.02 | 711.52 | 704.12 | 696.68 | 689.3 | 681.85
6000 kPa | 719.65 | 712.48 | 705.07 | 697.68 | 690.33 | 682.98
7000 kPa | 720.52 | 713.3 | 705.98 | 698.61 | 691.38 | 684.09
8000 kPa | 721.28 | 714.23 | 706.88 | 699.57 | 692.38 | 685.16
9000 kPa | 722.11 | 715.05 | 707.79 | 700.54 | 693.41 | 686.25
10000 kPa | 723.13 | 715.91 | 708.65 | 701.49 | 694.37 | 687.29
11000 kPa | 723.65 | 716.74 | 709.52 | 702.4 | 695.36 | 688.32
12000 kPa | 724.48 | 717.54 | 710.39 | 703.29 | 696.32 | 689.33
13000 kPa | 725.48 | 718.35 | 711.26 | 704.14 | 697.29 | 690.34
14000 kPa | 726.15 | 719.15 | 712.07 | 705.05 | 698.22 | 691.28
15000 kPa | 726.86 | 719.92 | 712.9 | 705.93 | 699.15 | 692.36
16000 kPa | 727.49 | 720.7 | 713.71 | 706.79 | 700.03 | –
17000 kPa | 728.18 | 721.46 | 714.52 | 707.6 | 700.94 | –
18000 kPa | 729.07 | 722.22 | 715.32 | – | 701.82 | –
18010 kPa | – | – | – | 708.57 | – | –
19000 kPa | 729.72 | 722.97 | 716.1 | 709.45 | 702.71 | –
20000 kPa | 730.26 | 723.71 | 716.88 | 710.3 | 703.59 | –
21000 kPa | 731.22 | 724.45 | 717.65 | 710.91 | 704.44 | –
22000 kPa | 731.8 | 725.18 | 718.43 | 711.92 | 705.25 | –
23000 kPa | 732.7 | 725.92 | 719.19 | 712.48 | 706.14 | –
24000 kPa | 733.26 | 726.62 | 719.99 | 713.42 | 706.95 | –
25000 kPa | 733.93 | 727.42 | 720.76 | 714.1 | 707.83 | –
